Test results reported in paper PMC11943913, “Peptides from Harpadon nehereus Bone Ameliorate Sodium Palmitate-Induced HepG2 Lipotoxicity by Regulating Oxidative Stress and Lipid Metabolism” (Marine Drugs, 2025).
“Also recorded” adds a separate entry of the source.

Experiments:
[1] = test system: glutathione peroxidase (GSH-Px); experiment: Glutathione peroxidase (GSH-Px) activity in HepG2; type: cell-based
Description: (§1) After incubation, cells were treated with 100 μM of peptides for 4 h. After removing the media, PANa was added for 24 h of incubation. The levels of catalase (CAT), superoxide dismutase (SOD), glutathione peroxidase (GSH-Px), malondialdehyde (MDA), triacylglycerol (TG), total cholesterol (TCHO), low-density lipoprotein cholesterol (LDL-C), and high-density lipoprotein cholesterol (HDL-C) in the supernatant were determined according to the kit instructions.

[2] = test system: phosphorylated ACC1 (p-ACC1); experiment: Western blot p-ACC1; type: cell-based; settings: HepG2, Western blot
Description: (§2) After treatment, cells were washed with pre-chilled PBS and lysed with ice-cold lysis buffer for 30 min. The supernatant was collected after centrifugation at 12,000× g for 10 min and stored at −80 °C. Protein concentration was determined using a BCA protein assay kit. Equal amounts of protein (20–40 µg) were subjected to 10% sodium dodecyl sulfate-polyacrylamide gel electrophoresis (SDS-PAGE) and transferred to PVDF membranes (Polyvinylidene Fluoride, Merck, Darmstadt, Germany). Non-specific binding sites were blocked with 5% bovine serum albumin (BSA) solution at room temperature for 1 h, followed by incubation with the primary antibody at 4 °C overnight. After washing with TBST (3 times, 10 min/time), the membrane was incubated with the secondary antibody at room temperature for 1 h. Following further washing with TBST (3 times, 10 min/time), antibody signals were detected using a Western blot development system. The dilution ratios for the internal reference protein, vascular endothelial injury-related proteins, and oxidative stress-related pathway proteins were prepared according to the manufacturer’s instructions.

Nrf2 = experiment: Western blot Nrf2; type: cell-based; settings: HepG2, Western blot
Description: as §2

pancreatic lipase = experiment: Pancreatic lipase activity inhibition; type: biochemical; settings: compared with orlistat (positive control); 4-nitrophenyl palmitate substrate, lipase 1.2 mg/mL, peptide 100 μM, Tris-HCl pH 8.0, 37 °C, absorbance 405 nm, three parallel wells
Description: A working substrate solution consisting of 4-nitrophenyl palmitate dissolved in sodium acetate solution (containing 1% Triton-X 100, 100 mL, 5 mM, pH 5.0) was prepared. Enzyme powder was dissolved in Tris-HCl buffer (pH 8.0, 37 °C). This mixture was incubated at 4 °C for 2 h before centrifugation at 5000 r/min for 5 min, yielding the supernatant used to prepare a pancreatic lipase solution of 1.2 mg/mL. Orlistat at a concentration of 1 mg/mL in Tris-HCl buffer (pH 8.0; 37 °C) was prepared alongside DMSO to reach a concentration of 350 μg/mL peptide solution. The peptide solution of 100 μM was prepared with Tris-HCl buffer (pH = 8.0, 37 °C). The absorbance was measured at 405 nm, and the inhibition rate was measured in parallel with three holes due to the methodology of Franco et al..

NQO1 = experiment: Western blot NQO1; type: cell-based; settings: HepG2, Western blot
Description: as §2

[3] = test system: superoxide dismutase (SOD); experiment: Superoxide dismutase (SOD) activity in HepG2; type: cell-based; settings: 100 μM peptide 4 h, then 350 µM PANa 24 h
Description: as §1

triacylglycerol (TG) = experiment: Triacylglycerol (TG) level in HepG2; type: cell-based
Description: as §1

HepG2 cells [4] = experiment: CCK-8 proliferation of HepG2 with peptide alone; type: cell-based; settings: concentrations below 200 µM, 24 h, CCK-8, n = 3
Description: HepG2 cells were cultured in DMEM supplemented with penicillin at a concentration of 100 U/mL, streptomycin at 100 μg/mL, and fetal bovine serum at a volume ratio of 10% under conditions of 37 °C and 5% CO2. A total of 2 ×10^4 cells per well were seeded into a 96-well plate for overnight culture. The upper layer of medium was carefully aspirated, and 200 μL of different concentrations of oligopeptide solution (50 μM, 100 μM, 200 μM) prepared with cell complete medium was added to each well. Twenty-four hours later, the proliferation rate of the cells was measured according to the instructions of the CCK-8 kit, and the appropriate concentration of oligopeptide was screened out.

[5] = test system: adipose triglyceride lipase (ATGL); experiment: Western blot ATGL; type: cell-based; settings: HepG2, Western blot
Description: as §2

[6] = test system: Carnitine palmitoyl transferase 1 (CPT1); experiment: Western blot CPT1; type: cell-based; settings: HepG2, Western blot
Description: as §2

[7] = test system: fatty acid synthase (FASN); experiment: Western blot FASN; type: cell-based; settings: HepG2, Western blot
Description: as §2

HepG2 cells [8] = experiment: Oil Red O staining (fat accumulation); type: cell-based; settings: 200×
Description: After incubation, the supernatants were discarded, and 2 mL of Oil Red O stationary solution was added to each well for 20–30 min. The stationary solution was subsequently washed away with 60% isopropyl alcohol. A freshly prepared Oil Red O staining solution was then applied for immersion dyeing lasting 10–20 min. After removing the staining solution with water, a Mayer hematoxylin staining solution was added for counterstaining the nucleus for 1–2 min before being discarded. An Oil Red O buffer solution was applied for 1 min and then discarded. […] The emission wavelength of fluorescence detection was 600 nm.

catalase (CAT) = experiment: Catalase (CAT) activity in HepG2; type: cell-based
Description: as §1

malondialdehyde (MDA) = experiment: Malondialdehyde (MDA) level in HepG2; type: cell-based
Description: as §1

HepG2 = experiment: Lipid levels in HepG2 (TG, TCHO, LDL-C, HDL-C) overall; type: cell-based; settings: 100 μM peptide 4 h, then 350 µM PANa 24 h
Description: as §1

[9] = test system: proteins associated with lipid metabolism; experiment: Western blot, proteins associated with lipid metabolism overall; type: cell-based; settings: 100 μM peptide 4 h, then 350 µM PANa 24 h, HepG2, Western blot
Description: as §2

total cholesterol (TCHO) = experiment: Total cholesterol (TCHO) level in HepG2; type: cell-based
Description: as §1

HepG2 cells [10] = experiment: Cell viability of PANa-induced HepG2 (CCK-8); type: cell-based; settings: 100 μM peptide 4 h, then 350 µM PANa 24 h, **** p < 0.0001 vs PANa group
Description: A total of 2 × 10^4 cells/well were inoculated in 96-well plates for culture at 37 °C and 5% CO2. Following this period, the cells received treatment with 200 μL medium containing 100 μM LR-7, KA-8, or PG-7 for 4 h before adding 350 μM PANa to each well. After incubation for an additional 24 h, the cell proliferation rates were assessed using the CCK-8 assay protocols.

HO-1 = experiment: Western blot HO-1; type: cell-based; settings: HepG2, Western blot
Description: as §2

[11] = test system: low-density lipoprotein cholesterol (LDL-C); experiment: LDL-C level in HepG2; type: cell-based
Description: as §1

hypertensive mice = settings: earlier work, ref [22]; cited from earlier work
Text: Harpadon nehereus, a nutrient-rich marine species indigenous to the Indo-Pacific region, remains underexploited despite its significant collagen content (18–22% wet weight). Harpadon nehereus serves as an economical source that is rich in protein and trace elements. Its proteins and derived peptides offer numerous health benefits including immune enhancement, blood pressure reduction, cardiovascular protection, and inflammation mitigation. In prior research, we successfully isolated three novel peptides LALFVPR (LR-7), KLHDEEVA (KA-8), and PSRILYG (PG-7) from the enzymatic hydrol ...

[12] = test system: high-density lipoprotein cholesterol (HDL-C); experiment: HDL-C level in HepG2; type: cell-based
Description: as §1

HepG2 cells [13] = experiment: Observation of cell morphology; type: cell-based; settings: 350 µM PANa 24 h, inverted microscope, 200×
Description: Cells grown in culture flasks underwent digestion to create a single-cell suspension that was then diluted with fresh medium before being transferred into six-well plates at a final concentration of 4 × 10^5/well (2 mL/well). Peptides at concentrations of 100 μM were introduced prior to adding PANa for a 4 h incubation. Following another 24 h culture period, cells were examined and photographed using an inverted microscope.

p-AMPKα = experiment: Western blot p-AMPKα; type: cell-based; settings: 350 µM PANa 24 h, HepG2, Western blot
Description: as §2

HepG2 cells [14] = experiment: CCK-8 proliferation of HepG2 with PANa; type: cell-based; settings: 1000 μM PANa, 24 h, CCK-8, p < 0.0001, 100% at 0 μM PANa
Description: After incubation, different concentrations (250, 500, 750, 1000 μmol/L) of PANa were added and treated for 24 h. The cell proliferation rates were measured according to the CCK-8 assay instructions.

[15] = 100 μM peptide 4 h, then 350 µM PANa 24 h, HepG2
[16] = 100 μM peptide 4 h, then 350 µM PANa 24 h, HepG2, p < 0.0001
[17] = 100 μM peptide 4 h, then 350 µM PANa 24 h
[18] = 100 μM peptide 4 h, then 350 µM PANa 24 h, vs PANa group
[19] = 100 μM peptide 4 h, then 350 µM PANa 24 h, vs PANa group, p < 0.0001
[20] = 350 µM PANa 24 h, HepG2, p < 0.001
[21] = 350 µM PANa 24 h, HepG2, p < 0.0001

With “LALFVPR [LR-7, peptide from Harpadon nehereus bone collagen enzymatic hydrolysates]” as the compound, how does the “GSH-Px activity, reversal of PANa-induced reduction” value [1, 15] read?
The value was “effectively reversed the reduction”.

What about the “increase in GSH-Px activity vs PANa group” value [1, 16] of the same compound?
Its value is “over 100%”.

What about the “p-ACC1 level vs PANa group” value [2, 17] of the same compound?
Its value is “p-ACC1 levels increased significantly”.

And the “enhancement of p-ACC1” value [2, 18]?
Its value is 293.7%.

And the Nrf2 protein level (Nrf2; [17])?
The Nrf2 protein level was “significant increases in the levels”.

And the “inhibition of pancreatic lipase activity” value (pancreatic lipase)?
Its value is “superior inhibitory effects compared with orlistat”.

And the NQO1 protein level (NQO1; [17])?
The NQO1 protein level was “significant increases in the levels”.

And the “increase in NQO1 level” value (NQO1; [19])?
Its value is 120%.

What about the “SOD activity, reversal of PANa-induced reduction” value [3] of the same compound?
The value was “effectively reversed the reduction”.

And the “TG, effect on PANa-induced increase” value (triacylglycerol (TG); [15])?
The value was “notably reversed the PANa-induced increases”.

And the “effect on apoptosis of HepG2 cells” value (HepG2 cells [4])?
Its value is “no effect on the apoptosis of HepG2 cells”.

What about the “enhancement of ATGL level” value [5, 19] of the same compound?
The value was 148.1%.

And the “enhancement of CPT1 level” value [6, 19]?
Its value is 134.7%.

What about the “FASN expression vs PANa group” value [7, 17] of the same compound?
Its value is “FASN expression decreased”.

What about the “reduction in FASN level” value [7, 18] of the same compound?
Its value is 59.6%.

And the “fat accumulation relative to PANa group” value (HepG2 cells [8]; [17])?
Its value is “most significant reduction in fat accumulation”.

And the “CAT activity, reversal of PANa-induced reduction” value (catalase (CAT); [15])?
The value was “effectively reversed the reduction”.

What about the “increase in CAT activity vs PANa group” value (catalase (CAT); [16]) of the same compound?
The value was “over 100%”.

What about the MDA level (malondialdehyde (MDA); [15]) of the same compound?
Its MDA level is “decreased to values similar to those observed in the Con group; also recorded: significantly decreased the MDA levels”.

And the “lipid-lowering impact, ranking among the three peptides” value (HepG2)?
Its value is “the most effective lipid-lowering impact”.

And the “abnormal expression of proteins associated with lipid metabolism by PANa (FASN, ATGL, CPT1, p-AMPKα)” value [9]?
The value was “significantly reversed”.

And the “TCHO, effect on PANa-induced increase” value (total cholesterol (TCHO); [15])?
Its value is “notably reversed the PANa-induced increases”.

And the “cell viability of PANa-exposed HepG2” value (HepG2 cells [10])?
The value was “notably enhanced the cell viability”.

And the HO-1 protein level (HO-1; [17])?
Its HO-1 protein level is “significant increases in the levels”.

And the “increase in HO-1 level” value (HO-1; [19])?
The value was 131.7%.

What about the “LDL-C, effect on PANa-induced increase” value [11, 15] of the same compound?
Its value is “notably reversed the PANa-induced increases”.

And the “protection against cardiovascular injuries in hypertensive mice” value (hypertensive mice)?
The value was “protective qualities against cardiovascular injuries in hypertensive mice”.

And the “HDL-C, effect on PANa-induced decrease” value [12, 15]?
The value was “notably reversed”.

Which results are given for `CCCCCCCCCCCCCCCC(=O)[O-].[Na+]` [PANa, Sodium palmitate]?
decrease in GSH-Px activity vs Con group [1, 20]: more than 20%; p-ACC1 level, PANa vs Con group ([2]; 350 µM PANa 24 h, p < 0.01): significantly reduced; Nrf2 protein expression, PANa vs Con group (Nrf2; 350 µM PANa 24 h): significant reduction; NQO1 protein expression, PANa vs Con group (NQO1; 350 µM PANa 24 h): significant reduction; increase in TG level vs Con group (triacylglycerol (TG); [21]): 124.1%; cell morphology, PANa group (HepG2 cells [13]): appeared loose, with a marked decrease in cell count and showed signs of apoptosis; phosphorylation of AMPKα, PANa group (p-AMPKα): attenuate the phosphorylation of AMPKα; ATGL expression, PANa vs Con group ([5]; 350 µM PANa 24 h, p < 0.05): markedly diminished; CPT1 expression, PANa vs Con group ([6]; 350 µM PANa 24 h, p < 0.05): markedly diminished; FASN expression, PANa vs Con group ([7]; 350 µM PANa 24 h): notable increase in FASN expression; fat droplet formation and accumulation, PANa vs Con group (HepG2 cells [8]; 350 µM PANa 24 h): evident rise in fat droplet formation and accumulation; decrease in CAT activity vs Con group (catalase (CAT); [20]): more than 20%; increase in MDA level vs Con group (malondialdehyde (MDA); [21]): 105%; cell viability (HepG2 cells [14]): 33.3%; increase in TCHO level vs Con group (total cholesterol (TCHO); [21]): 48.4%; HO-1 protein expression, PANa vs Con group (HO-1; 350 µM PANa 24 h): significant reduction; increase in LDL-C level vs Con group [11, 21]: 58.3%; decrease in HDL-C level vs Con group [12, 20]: 51.7%
